Bounds are passed on as bounds.

One experiment addresses HIS-TGFβR1 T204D (Homo sapiens (Human), UniProt P36897, T204D). Nature of the experiment: HTRF probe displacement assay, HIS-TGFβR1 T204D. The note with it: 1 nM HIS-TGFβR1 T204D, 1 hour at room temperature, read-out: TGFBR1T204D IC50. It counts as binding. As for the experimental part: (§1) Compounds were dissolved at 10 mM in dimethylsulfoxide (DMSO) and evaluated at eleven concentrations. IC50 values were derived by non-linear regression analysis.

For another experiment, the target named is HIS-TGFβR2 WT (Homo sapiens (Human), UniProt P37173). Nature of the experiment: HTRF probe displacement assay, HIS-TGFβR2 WT. Particulars: 1 nM HIS-TGFβR2 WT, 1 hour at room temperature, read-out: TGFBR2WT IC50. It counts as binding. Here is the method:
as §1

Sequence of HIS-TGFβR1 T204D (P36897 34-503 T204D): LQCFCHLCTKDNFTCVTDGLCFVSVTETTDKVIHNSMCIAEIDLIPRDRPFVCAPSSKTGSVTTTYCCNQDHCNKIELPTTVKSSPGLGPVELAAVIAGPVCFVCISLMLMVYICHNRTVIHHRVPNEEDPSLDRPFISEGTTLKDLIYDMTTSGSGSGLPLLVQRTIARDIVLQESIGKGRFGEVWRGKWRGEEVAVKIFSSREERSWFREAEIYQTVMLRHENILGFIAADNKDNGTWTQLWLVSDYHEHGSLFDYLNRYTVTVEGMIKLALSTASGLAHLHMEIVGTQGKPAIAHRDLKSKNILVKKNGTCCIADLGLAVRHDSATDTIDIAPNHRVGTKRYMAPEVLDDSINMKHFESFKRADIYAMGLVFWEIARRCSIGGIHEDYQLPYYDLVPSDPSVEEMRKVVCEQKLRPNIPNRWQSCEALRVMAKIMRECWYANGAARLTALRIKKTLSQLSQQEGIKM
Sequence of HIS-TGFβR2 WT (P37173 23-567): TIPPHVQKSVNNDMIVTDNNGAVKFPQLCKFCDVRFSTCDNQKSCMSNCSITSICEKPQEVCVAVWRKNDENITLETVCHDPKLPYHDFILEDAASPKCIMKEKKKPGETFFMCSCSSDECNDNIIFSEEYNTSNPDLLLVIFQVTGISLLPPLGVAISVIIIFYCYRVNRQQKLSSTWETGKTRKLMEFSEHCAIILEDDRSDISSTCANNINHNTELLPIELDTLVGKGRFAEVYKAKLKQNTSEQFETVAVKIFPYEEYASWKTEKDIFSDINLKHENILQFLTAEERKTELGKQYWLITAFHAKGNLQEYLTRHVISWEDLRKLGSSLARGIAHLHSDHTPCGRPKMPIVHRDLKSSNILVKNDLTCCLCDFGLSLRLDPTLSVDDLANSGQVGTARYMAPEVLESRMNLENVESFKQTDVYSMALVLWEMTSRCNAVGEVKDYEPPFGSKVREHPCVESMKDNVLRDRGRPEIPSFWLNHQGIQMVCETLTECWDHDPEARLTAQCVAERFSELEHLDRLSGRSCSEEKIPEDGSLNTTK

`CCOC(=O)c1cnn2ccc(-c3cccnc3-c3cccc(C(F)(F)F)n3)nc12` [Compound 123, ethyl 5-(6′-(trifluoromethyl)-[2,2′-bipyridin]-3-yl)pyrazolo[1,5-a]pyrimidine-3-carboxylate]: the IC50 at HIS-TGFβR1 T204D was 46 nM; at HIS-TGFβR2 WT, over 15000 nM.

In the case of `COc1cccc(-c2ncccc2-c2ccc3ncc(C#N)n3n2)n1` [Compound 50, 6-(6′-methoxy-[2,2′-bipyridin]-3-yl)imidazo[1,2-b]pyridazine-3-carbonitrile], the IC50 is 43 nM on HIS-TGFβR1 T204D and over 15000 nM on HIS-TGFβR2 WT.

Take `Cc1cccc(-c2ncccc2-c2ccc3ncc(C(=O)O)n3n2)n1` [Compound 73, 6-(6′-methyl-[2,2′-bipyridin]-3-yl)imidazo[1,2-b]pyridazine-3-carboxylic acid]: the IC50 was 26 nM on HIS-TGFβR1 T204D and over 15000 nM on HIS-TGFβR2 WT.

Regarding `CNC(=O)c1cnn2ccc(-c3cccnc3-c3cccc(C(F)(F)F)n3)nc12` [Compound 125, N-methyl-5-(6′-(trifluoromethyl)-[2,2′-bipyridin]-3-yl)pyrazolo[1,5-a]pyrimidine-3-carboxamide], the figures for the IC50 at HIS-TGFβR1 T204D and at HIS-TGFβR2 WT were 339 nM and over 15000 nM, respectively.

Take `NC(=O)c1cnc2ccc(-c3cccnc3-c3cccc(C(F)(F)F)n3)cn12` [Compound 18, 6-(6′-(trifluoromethyl)-[2,2′-bipyridin]-3-yl)imidazo[1,2-a]pyridine-3-carboxamide]: the IC50 on HIS-TGFβR1 T204D is 1 nM; on HIS-TGFβR2 WT, over 15000 nM.

For `N#Cc1cnc2ccc(-c3cccnc3-c3ccccn3)cn12` [Compound 13, 6-([2,2′-bipyridin]-3-yl)imidazo[1,2-a]pyridine-3-carbonitrile], the figures for the IC50 at HIS-TGFβR1 T204D and on HIS-TGFβR2 WT were 103 nM and over 15000 nM, respectively.

As to `Cc1cccc(-c2nccc(N)c2-c2ccc3ncc(C(N)=O)n3c2)n1` [Compound 101, 6-(4-amino-6′-methyl-[2,2′-bipyridin]-3-yl)imidazo[1,2-a]pyridine-3-carboxamide], the IC50 at HIS-TGFβR1 T204D was 5 nM; on HIS-TGFβR2 WT, over 15000 nM.

With `COC(=O)c1ccc(-c2ncccc2-c2ccc3ncc(C#N)n3c2)nc1` [Compound 25, methyl 3′-(3-cyanoimidazo[1,2-a]pyridin-6-yl)-[2,2′-bipyridine]-5-carboxylate], the IC50 was 4480 nM at HIS-TGFβR1 T204D and over 15000 nM on HIS-TGFβR2 WT.

Take `COCCNC(=O)c1cnc2ccc(-c3cccnc3-c3cccc(C)n3)cn12` [Compound 70, N-(2-methoxyethyl)-6-(6′-methyl-[2,2′-bipyridin]-3-yl)imidazo[1,2-a]pyridine-3-carboxamide]: the IC50 is 4 nM on HIS-TGFβR1 T204D and over 15000 nM on HIS-TGFβR2 WT.

For `N#Cc1cnc2ccc(-c3cccnc3-c3cccc(C4CC4)n3)cn12` [Compound 34, 6-(6′-cyclopropyl-[2,2′-bipyridin]-3-yl)imidazo[1,2-a]pyridine-3-carbonitrile], the IC50 on HIS-TGFβR1 T204D was 19 nM; at HIS-TGFβR2 WT, over 15000 nM.

For the compound `Fc1ccc(-c2ncccc2-c2ccc3[nH]ncc3c2)nc1` [Compound 116, 5-(5′-fluoro-[2,2′-bipyridin]-3-yl)-1H-indazole], the IC50 on HIS-TGFβR1 T204D was 14 nM; at HIS-TGFβR2 WT it was over 15000 nM.

In the case of `N#Cc1cnc2ccc(-c3cccnc3-c3ccc(F)c(C(F)F)n3)cn12` [Compound 23, 6-(6′-(difluoromethyl)-5′-fluoro-[2,2′-bipyridin]-3-yl)imidazo[1,2-a]pyridine-3-carbonitrile], the IC50 on HIS-TGFβR1 T204D is 130 nM; on HIS-TGFβR2 WT it was over 15000 nM.

For the compound `FC(F)c1cccc(-c2ncccc2-c2ccc3[nH]ncc3c2)n1` [Compound 115, 5-(6′-(difluoromethyl)-[2,2′-bipyridin]-3-yl)-1H-indazole], the IC50 at HIS-TGFβR1 T204D is 3 nM; on HIS-TGFβR2 WT it was over 15000 nM.

With `N#Cc1cnc2ccc(-c3cccnc3-c3cccc(F)n3)cn12` [Compound 36, 6-(6′-fluoro-[2,2′-bipyridin]-3-yl)imidazo[1,2-a]pyridine-3-carbonitrile], the IC50 on HIS-TGFβR1 T204D was 120 nM; at HIS-TGFβR2 WT, over 15000 nM.
